Measured values from PubChem BioAssay AID434955 (Southern Research Specialized Biocontainment Screening …, 2010).

What follows are compounds tested on M. tuberculosis H37Rv growth with meropenem, percent inhibition (assay: beta-lactam sensitization of Mtb H37Rv, H37Rv (AID 434955)).

SMILES	IC90 [µM]
COc1ccc(/C=C/C(=O)N(C(C)C)C(C)C)cc1Br	96.4
COc1cc(C(=O)Nc2cccc(-c3cn4cccnc4n3)c2)cc(OC)c1OC	30.2
O=C(NCc1nc2ncc(Br)cc2[nH]1)c1ccccc1	54.9
c1ccc(-c2cc(N3CCOCC3)nc3ccccc23)cc1	91.5
Cn1c(SCC(=O)OC2CCCCC2)nnc1-c1ccc2c(c1)OCO2	34.9
CSc1ccc(/C=C/C(=O)NC23CC4CC(CC(C4)C2)C3)cc1	16.1
CC/C(=N\NC(=S)NC(C)C)c1ccc(OC)c(OC)c1	15.5
CC(C)CC(=O)N1CCN(c2ccc([N+](=O)[O-])c(NCc3ccccc3)c2)CC1	48.6
O=C(NN1C(=O)C2C(C1=O)C1C=CC2C12CC2)c1ccncc1 (configuration not stated)	13.9
COc1cc(OC)cc(-c2cc3ccc(OC)cc3cn2)c1	76.9
CCOC(=O)N1CCN(CC(=O)Nc2nnc(C(F)(F)F)s2)CC1	50.1
Cc1[nH]n(-c2ccccc2)c(=O)c1/C=N/NC(=O)c1cccc([N+](=O)[O-])c1	70.7
CCOc1ccc(N2C(=O)CC(N)C2=O)cc1 (configuration not stated)	52.4
Cc1ccccc1NC(=O)/C(C#N)=C\c1cc(C)n(-c2ccc(C(=O)O)cc2)c1C	51.1
COC(=O)Cn1c2ccccc2c2nc(C)sc21	27.8
C=CCN=c1scc(-c2ccc(F)cc2)n1/N=C/c1ccccn1	71.7
Cc1cccc(-n2nc([N+](=O)[O-])c(=NC3CCN(Cc4ccccc4)CC3)n2O)c1	30.5
O=C(NCCC1=CCCCC1)c1ccc(Cl)c([N+](=O)[O-])c1	30.2
COCCNC(=S)N/N=C1\CC(C)CC(C)(C)C1 (configuration not stated)	27.5
CC(=O)Nc1cccc(/C(C)=N/NC(N)=S)c1	28.6
CCC(=O)N1CCN(c2ccc(NC(=S)NC(=O)c3ccc(OC)c([N+](=O)[O-])c3)cc2)CC1	67.8

SMILES	IC90 [µM]
O=C1OC(c2ccco2)=N/C1=C\c1ccc(-c2cccc(C(F)(F)F)c2)o1	53.4
Cc1nn(-c2ccccc2)c(N2CCCC2)c1/C=C1\N=C(c2ccc(F)cc2)OC1=O	22.9
CC(C)(C)NCCCOc1ccc(Cl)cc1C(C)(C)C	26.9
CC(C)(C)c1ccc(C(=O)Oc2ccc3c(c2)OCC3=O)cc1	29.4
CCOc1ccc(S(=O)(=O)N(C(=O)c2ccco2)c2cc3sc(=O)oc3c3ccccc23)cc1	46.9
O=C(COC(=O)c1ccc([N+](=O)[O-])s1)NCc1ccccc1	39.4
Cc1onc(-c2ccccc2)c1C(=O)Nc1ccc(-c2nnc3n2CCCCC3)cc1	38.6
O=C(c1ccc(-c2ccc(Cl)cc2)o1)N1CCN(S(=O)(=O)c2cccs2)CC1	99.6
O=C(Oc1c(-c2ccccc2)c(=O)n2c3c(cccc13)CC2)c1ccc(F)cc1	34
CCCCN=C1CC(C)(C)CC(=O)/C1=C(/O)CCC	28.7
COc1ccc(OC)c(NC(=O)CS(=O)(=O)c2ccccc2)c1	14.3
Cc1ccc(S(=O)(=O)Nc2cccc3cccnc23)c([N+](=O)[O-])c1	4.7
C/C(=N/NC(=O)c1ccccn1)c1ccncc1	23.1
CCOC(=O)c1ccc(C(=O)NNC(=O)C2CC=CCC2)cc1 (configuration not stated)	40
O=C(/C=C/c1ccc([N+](=O)[O-])cc1)c1cccs1	12.2
Cc1cccc(Nc2nnc(SCC(=O)Nc3ncc(C(F)(F)F)cc3Cl)s2)c1C	21.5
CN(C)/N=C/c1ccc(/C=N/NC(N)=S)o1	43.3
CCc1cc(C(N)=S)ccn1	12.8
CO/N=C(\C(=O)N[C@@H]1C(=O)N2C(C(=O)O)=C(COC(C)=O)CS[C@H]12)c1csc(N)n1 (stereo in doubt)	41.7
O=C1O/C(=C/c2ccccc2)N=C1c1ccccc1	28.3
O=C(N[C@@H](Cc1ccccc1)C(=O)CCl)OCc1ccccc1	46.9

SMILES	IC90 [µM]
CCOc1ccc2nc(SC3CC(=O)N(c4cccc(OC)c4)C3=O)sc2c1 (configuration not stated)	25.7
O=C1Nc2c(ccc(Cl)c2Cl)C(=O)C1(F)c1ccccc1 (configuration not stated)	71.7
CCCCNC(=O)c1onc(CSc2ccccc2CC)c1C(=O)O	23.7
COC(=O)C1=C(C)NC(=O)/C1=C\c1cc(C)n(-c2c(C)cccc2C)c1C	99.8
CN(C(=O)Nc1ccc(Cl)cc1)n1cnc2ccccc2c1=O	48.6
Cn1c(/C=N/c2nc3ccccc3[nH]2)nc2ccccc21	4.17
O=C(N/N=C/c1ccc([N+](=O)[O-])o1)c1ccccc1-n1cccc1	29.4
C=CCNCCCOc1ccc(Cl)cc1C(C)(C)C	52.6
CC(C)C[C@H](NC(=O)c1nc[nH]c1C(=O)N1CCN(C(=O)OC(C)(C)C)CC1)C(=O)OCc1ccccc1	54.9
COc1cc(C(=O)Oc2cccnc2)cc(OC)c1OC	13.6
Cn1c(=O)c2ccccc2n2c(CCl)nnc12	4.65
O=C(Nc1ccc2nc3n(c(=O)c2c1)CCCC3)c1cc([N+](=O)[O-])ccc1F	91
O=S(=O)(Cc1ccccc1)c1cnc2ccccc2n1	48.6
COc1ccc(NC(C)C(=O)N/N=C/c2ccc([N+](=O)[O-])s2)cc1 (configuration not stated)	4.79
O=C(NN1C(=O)c2cc(Br)ccc2NC1c1ccccc1Cl)c1ccncc1 (configuration not stated)	13.7
CCOc1ccc(N=c2cc(-c3ccc(OC)cc3)oc3ccccc23)cc1	50.3
CC1CCCN(S(=O)(=O)c2ccc(C(=O)Nc3nnc(-c4ccncc4)o3)cc2)C1 (configuration not stated)	64.8
COc1cc(NC(=O)c2cccc(Cl)c2)c(OC)cc1NC(=O)CN1CCCCC1	75.5
Cc1ccc(C2=NN3C(=O)c4ccccc4C3C2)cc1 (configuration not stated)	35.1
COc1ccc(-n2cc(-c3ccccc3)c3c(NN4CCOCC4)ncnc32)cc1	36.1
CCCn1nnnc1NC(=O)COc1ccc(Cl)cc1C	42.9

SMILES	IC90 [µM]
COc1ccc(NC(=O)c2cc(C)nc3ccccc23)c(OC)c1	12.9
COc1ccc(C(=O)NC(=S)Nc2ccc(S(=O)(=O)Nc3cc(C)on3)cc2)cc1OC	29
O=C(COC(=O)c1ccc(Cl)cc1[N+](=O)[O-])NNC(=O)c1cccs1	51.1
Cc1cccc(C)c1OCC(=O)NNC(=O)CNC(=O)c1ccc(OC(F)F)cc1	98.1
NNC(=S)NC1CC2CC1C1C=CCC21 (configuration not stated)	13.5
CCCOc1ccccc1NC(=O)/C=C/C(N)=O	27.7
CCC(C(=O)NC1C(=O)N2C(C(=O)O)=C(CSc3nnc(C)s3)CSC12)c1ccccc1 (configuration not stated)	1.57
Cc1noc(NS(=O)(=O)c2ccc(N/C=C\C(=O)c3ccc4c(c3)OCO4)cc2)c1C	86
COc1cc(CNCCO)cc(Br)c1OCc1ccccc1Cl	52.7
COCCSc1nc2sc3c(c2c(=O)n1-c1ccccc1)CCN(C)C3	53.3
Nc1ccc(N=Nc2ccccc2O)c(N)c1	34
CCOC(=O)c1cnc2cc(-c3ccc(C(C)(C)C)cc3)nn2c1N	5.74
CCOc1ccc2c(c1)c(C(C)=O)c(C)n2-c1ccccc1	1.96
CCN(CC)C(=O)C1CCCN(c2ccc([N+](=O)[O-])cc2/C=N/NC(=O)c2cccc(O)c2)C1 (configuration not stated)	55.3
CCNC(=S)N/N=C1\C(=O)c2cccc3cccc1c23	7.61
Cc1ccccc1CSc1nnc(C)c(=O)n1N	32.3
O=C(CN1C(=O)c2cccc([N+](=O)[O-])c2C1=O)N1CCN(c2ccc(F)cc2)CC1	74.5
COc1ccc(C2(CNC(=O)c3cc([N+](=O)[O-])cc([N+](=O)[O-])c3)CCCC2)cc1OC	1.61
COc1cc(/C=C/c2ccc3cccc([N+](=O)[O-])c3n2)ccc1OCC(=O)O	12
